In patent US10696707B2, “Polyene macrolide derivative” (Shionogi & Co., Ltd., priority 2014, dated 2020):
pIC50: −log10 of the molar value. In brackets after ≈: the same amount, converted by molar mass. Read-outs that look alike come from different tables or passages of the source.

Tests used:
Assay type in all cases: cell-based
C. albicans ATCC90028 = experiment: Antifungal activity test, MIC by broth microdilution (CLSI M27-A3); settings: C. albicans ATCC90028, 35° C., 24-48 hours
Method: (§1) The Minimum Inhibitory Concentration (MIC) values of the present compound against yeast and filamentous fungi were determined by broth microdilution assay according to the Clinical Laboratory Standards Institute (CLSI) guidelines outlined in documents M27-A3 and M38-A2. The medium used in the assay consisted of RPMI1640 (with glutamine, without bicarbonate) with 2% glucose and 0.165 mol/L morpholinepropanesulfonic acid (MOPS) with pH adjusted to 7.0 using 1 mol/L sodium hydroxide. The present compound was dissolved in dimethyl sulfoxide (DMSO). A series of two-fold dilutions were prepared in DMSO, and then 2 μL of the diluted compound was added to each well in 96-well sterile plates. Each inoculum was prepared by diluting a suspension of Candida spp. or a conidia suspension of Aspergillus spp. suspended in sterile saline solution, and then 200 μL was added to each well to a predetermined concentration using RPMI/MOPS (final concentration for each solution: approximately 1×10^3 cells/mL and approximately 1×10^4 CFU/mL). Plates of Candida spp. and Aspergillus spp. were incubated at 35° C. for 24-48 hours. The MIC was defined as the lowest concentration giving 100% inhibition compared to the growth control.

A. flavus ATCC204304 = experiment: Antifungal activity test, MIC by broth microdilution (CLSI M38-A2); settings: A. flavus ATCC204304, 35° C., 24-48 hours
Method: as §1

A. fumigatus ATCC204305 = experiment: as above; settings: A. fumigatus ATCC204305, 35° C., 24-48 hours
Method: as §1

[1] = test system: red blood cells (5% RBC suspension); experiment: Test Example 2-1: in vitro hemolytic activity test (upper limit 50, 80, 100 or 200 μmol/L); settings: 5% RBC suspension, 37° C., one hour, read-out: hemolysis IC50
Method: Nephrotoxic potentials of the compounds of the present invention except the compounds whose X is —N(R^F)—CO—X^1 and X^1 is the group represented by formula (III) and T is —N(R^a5)— were investigated by in vitro hemolytic activity test under the condition, in that, the upper limit was 50 μmol/L, 80 μmol/L, 100 μmol/L, or 200 μmol/L as the required concentration to 50% of hemolysis (IC50).
Defibrinated sterile blood was centrifuged at 700×g for 3 minutes and, and the supernatant was removed for 100% of red blood cells. After the cleaning with physiological saline, the washed blood cells was suspended in the medium (Earle's balanced salt sodium, bicarbonate, 0.1 g/L L-glutamine without phenol red), and was diluted by 5% (5% RBC suspension).
The washed blood was diluted by 5% in water for injection (solution of complete hemolysis), and was used as the indication of optical density for complete hemolysis.
The compounds of the present invention solution in DMSO (several and doubling dilutions starting from 2.5 mmol/L, 4 mmol/L, 5 mmol/L, or 10 mmol/L), DMSO as the negative control, and Amphotericin B as the positive control were used, and each 5 μL of these was added in to a well of V-form 96 well type microplate.
Finally, the maximum concentration of the compounds of the present invention solution in DMSO was 50 μmol/L, 80 μmol/L, 100 μmol/L, or 200 μmol/L by adding 245 μL of the medium or 5% RBC suspension into the well.
Two hundred fifty μL of the solution of complete hemolysis was added into another well and the microplate was incubated at 37° C. in 5% of CO2 concentration for an hour.
After the incubation, each 100 μL of supernatants in wells was collected by centrifugation of the microplate at 300×g for 5 minutes and was located on a well of flat-form 96 well type microplate. An absorbance of each supernatant was measured at wavelength of 540 nm.
Percent hemolysis was calculated by using the followed equation. The required concentration to 50% of hemolysis (IC50) was calculated based on the percent hemolysis. […] Hemolysis (%)=(CR−VM)×100÷(VL−VR) Where:
CR: Absorbance of 5% RBC suspension incubated with the compounds of the present invention solution in DMSO
VM: Absorbance of medium incubated with the compounds of the present invention solution in DMSO
VL: Absorbance of solution of complete hemolysis
VR: Absorbance of 5% RBC suspension incubated with DMSO
The “hemolysis method” in the table means any tests the upper concentration of above IC50 are 50 μmol/L, 80 μmol/L, 100 μmol/L or 200 μmol/L. The “>50”, “>80”, “>100” or “>200” in the table means above IC50 value exceeded the each upper concentration.

[2] = broth microdilution, 100% inhibition
[3] = lowest concentration giving 100% inhibition
[4] = hemolysis method 100 (upper concentration 100 μmol/L)
[5] = hemolysis method 50 (upper concentration 50 μmol/L)
[6] = hemolysis method 80 (upper concentration 80 μmol/L)

C[C@@H]1[C@H](O)[C@@H](C)/C=C/C=C/C=C/C=C/C=C/C=C/C=C/[C@H](O[C@@H]2O[C@H](C)[C@@H](O)[C@H](N)[C@@H]2O)C[C@@H]2O[C@](O)(C[C@@H](O)C[C@@H](O)[C@H](O)CC[C@@H](O)C[C@@H](O)CC(=O)O[C@H]1C)C[C@H](O)[C@H]2NC(=O)NCC(=O)NC(CO)CO [I-155]
MIC (C. albicans ATCC90028; [2]): 0.5 µg/mL (≈ 0.468 µM) | MIC (A. flavus ATCC204304; [2]): 0.5 µg/mL (≈ 0.468 µM) | MIC (A. fumigatus ATCC204305; [2]): 1 µg/mL (≈ 0.935 µM)

C[C@@H]1[C@H](O)[C@@H](C)/C=C/C=C/C=C/C=C/C=C/C=C/C=C/[C@H](O[C@@H]2O[C@H](C)[C@@H](O)[C@H](N)[C@@H]2O)C[C@@H]2O[C@](O)(C[C@@H](O)C[C@@H](O)[C@H](O)CC[C@@H](O)C[C@@H](O)CC(=O)O[C@H]1C)C[C@H](O)[C@H]2NC(=O)NOCC(=O)O [I-278]
MIC (C. albicans ATCC90028; Candida albicans, broth microdilution, 100% inhibition, read-out: MIC): 0.5 µg/mL (≈ 0.494 µM) | MIC (A. flavus ATCC204304; Aspergillus flavus, broth microdilution, 100% inhibition, read-out: MIC): 0.5 µg/mL (≈ 0.494 µM) | MIC (A. fumigatus ATCC204305; Aspergillus fumigatus, broth microdilution, 100% inhibition, read-out: MIC): 0.5 µg/mL (≈ 0.494 µM)

C[C@@H]1[C@H](O)[C@@H](C)/C=C/C=C/C=C/C=C/C=C/C=C/C=C/[C@H](O[C@@H]2O[C@H](C)[C@@H](O)[C@H](NC(=O)CN(C)C)[C@@H]2O)C[C@@H]2O[C@](O)(C[C@@H](O)C[C@@H](O)[C@H](O)CC[C@@H](O)C[C@@H](O)CC(=O)O[C@H]1C)C[C@H](O)[C@H]2NC(=O)NNC(N)=O [I-326]
MIC (C. albicans ATCC90028; [3]): 0.25 µg/mL (≈ 0.231 µM) | MIC (A. flavus ATCC204304; [3]): 1 µg/mL (≈ 0.925 µM) | MIC (A. fumigatus ATCC204305; [3]): 1 µg/mL (≈ 0.925 µM)

C[C@@H]1[C@H](O)[C@@H](C)/C=C/C=C/C=C/C=C/C=C/C=C/C=C/[C@H](O[C@@H]2O[C@H](C)[C@@H](O)[C@H](N)[C@@H]2O)C[C@@H]2O[C@](O)(C[C@@H](O)C[C@@H](O)[C@H](O)CC[C@@H](O)C[C@@H](O)CC(=O)O[C@H]1C)C[C@H](O)[C@H]2NC(=O)N(C)O [I-266]
MIC (C. albicans ATCC90028; [2]): 0.25 µg/mL (≈ 0.258 µM) | MIC (A. flavus ATCC204304; [2]): 0.5 µg/mL (≈ 0.516 µM) | MIC (A. fumigatus ATCC204305; [2]): 0.5 µg/mL (≈ 0.516 µM)

C[C@@H]1[C@H](O)[C@@H](C)/C=C/C=C/C=C/C=C/C=C/C=C/C=C/[C@H](O[C@@H]2O[C@H](C)[C@@H](O)[C@H](N)[C@@H]2O)C[C@@H]2O[C@](O)(C[C@@H](O)C[C@@H](O)[C@H](O)CC[C@@H](O)C[C@@H](O)CC(=O)O[C@H]1C)C[C@H](O)[C@H]2NC(=O)N(N)CCO [I-212]
pIC50 [1, 4]: < 4.00

C[C@@H]1[C@H](O)[C@@H](C)/C=C/C=C/C=C/C=C/C=C/C=C/C=C/[C@H](O[C@@H]2O[C@H](C)[C@@H](O)[C@H](N)[C@@H]2O)C[C@@H]2O[C@](O)(C[C@@H](O)C[C@@H](O)[C@H](O)CC[C@@H](O)C[C@@H](O)CC(=O)O[C@H]1C)C[C@H](O)[C@H]2NC(=O)NCCNC(N)=O [I-93]
pIC50 [1, 5]: < 4.30

C[C@@H]1[C@H](O)[C@@H](C)/C=C/C=C/C=C/C=C/C=C/C=C/C=C/[C@H](O[C@@H]2O[C@H](C)[C@@H](O)[C@H](N)[C@@H]2O)C[C@@H]2O[C@](O)(C[C@@H](O)C[C@@H](O)[C@H](O)CC[C@@H](O)C[C@@H](O)CC(=O)O[C@H]1C)C[C@H](O)[C@H]2NC(=O)NCCC(N)=O [I-81]
pIC50 [1, 5]: < 4.30

C[C@@H]1[C@H](O)[C@@H](C)/C=C/C=C/C=C/C=C/C=C/C=C/C=C/[C@H](O[C@@H]2O[C@H](C)[C@@H](O)[C@H](N)[C@@H]2O)C[C@@H]2O[C@](O)(C[C@@H](O)C[C@@H](O)[C@H](O)CC[C@@H](O)C[C@@H](O)CC(=O)O[C@H]1C)C[C@H](O)[C@H]2NC(=O)N1CCN(c2ccccc2)CC1 [I-17]
pIC50 [1, 6]: < 4.10

C[C@@H]1[C@H](O)[C@@H](C)/C=C/C=C/C=C/C=C/C=C/C=C/C=C/[C@H](O[C@@H]2O[C@H](C)[C@@H](O)[C@H](N)[C@@H]2O)C[C@@H]2O[C@](O)(C[C@@H](O)C[C@@H](O)[C@H](O)CC[C@@H](O)C[C@@H](O)CC(=O)O[C@H]1C)C[C@H](O)[C@H]2NC(=O)NC(CO[C@H]1O[C@H](CO)[C@@H](O)[C@H](O)[C@@H]1O)CO[C@H]1O[C@H](CO)[C@@H](O)[C@H](O)[C@@H]1O [I-254]
pIC50 ([1]; Erythrocyte, 1 h, hemolysis method 50 (upper concentration 50 μmol/L)): < 4.30

COC(=O)CCCNC(=O)N[C@H]1[C@@H]2C[C@@H](O[C@@H]3O[C@H](C)[C@@H](O)[C@H](N)[C@@H]3O)/C=C/C=C/C=C/C=C/C=C/C=C/C=C/[C@H](C)[C@@H](O)[C@@H](C)[C@H](C)OC(=O)C[C@H](O)C[C@H](O)CC[C@@H](O)[C@H](O)C[C@H](O)C[C@](O)(C[C@@H]1O)O2 [I-55]
pIC50 [1, 5]: < 4.30

C[C@@H]1[C@H](O)[C@@H](C)/C=C/C=C/C=C/C=C/C=C/C=C/C=C/[C@H](O[C@@H]2O[C@H](C)[C@@H](O)[C@H](N)[C@@H]2O)C[C@@H]2O[C@](O)(C[C@@H](O)C[C@@H](O)[C@H](O)CC[C@@H](O)C[C@@H](O)CC(=O)O[C@H]1C)C[C@H](O)[C@H]2NC(=O)NC1CN(C)C1 [I-62]
pIC50 [1, 4]: 4.30

C[C@@H]1[C@H](O)[C@@H](C)/C=C/C=C/C=C/C=C/C=C/C=C/C=C/[C@H](O[C@@H]2O[C@H](C)[C@@H](O)[C@H](N)[C@@H]2O)C[C@@H]2O[C@](O)(C[C@@H](O)C[C@@H](O)[C@H](O)CC[C@@H](O)C[C@@H](O)CC(=O)O[C@H]1C)C[C@H](O)[C@H]2NC(=O)N(CCO)CCO [I-39]
pIC50 [1, 6]: < 4.10

C[C@@H]1[C@H](O)[C@@H](C)/C=C/C=C/C=C/C=C/C=C/C=C/C=C/[C@H](O[C@@H]2O[C@H](C)[C@@H](O)[C@H](N)[C@@H]2O)C[C@@H]2O[C@](O)(C[C@@H](O)C[C@@H](O)[C@H](O)CC[C@@H](O)C[C@@H](O)CC(=O)O[C@H]1C)C[C@H](O)[C@H]2NC(=O)N1CCC(N(C)C)C1 (single isomer, unassigned) [I-49]
pIC50 [1, 6]: < 4.10

C[C@@H]1[C@H](O)[C@@H](C)/C=C/C=C/C=C/C=C/C=C/C=C/C=C/[C@H](O[C@@H]2O[C@H](C)[C@@H](O)[C@H](N)[C@@H]2O)C[C@@H]2O[C@](O)(C[C@@H](O)C[C@@H](O)[C@H](O)CC[C@@H](O)C[C@@H](O)CC(=O)O[C@H]1C)C[C@H](O)[C@H]2NC(=O)NC1CCN(C)CC1 [I-48]
pIC50 [1, 6]: < 4.10

C[C@@H]1[C@H](O)[C@@H](C)/C=C/C=C/C=C/C=C/C=C/C=C/C=C/[C@H](O[C@@H]2O[C@H](C)[C@@H](O)[C@H](N)[C@@H]2O)C[C@@H]2O[C@](O)(C[C@@H](O)C[C@@H](O)[C@H](O)CC[C@@H](O)C[C@@H](O)CC(=O)O[C@H]1C)C[C@H](O)[C@H]2NC(=O)N1CCN(CCCOc2ccccc2)CC1 [I-24]
pIC50 [1, 6]: < 4.10

C[C@@H]1[C@H](O)[C@@H](C)/C=C/C=C/C=C/C=C/C=C/C=C/C=C/[C@H](O[C@@H]2O[C@H](C)[C@@H](O)[C@H](N)[C@@H]2O)C[C@@H]2O[C@](O)(C[C@@H](O)C[C@@H](O)[C@H](O)CC[C@@H](O)C[C@@H](O)CC(=O)O[C@H]1C)C[C@H](O)[C@H]2NC(=O)N1CCCN(CCCN2CCOCC2)CC1 [I-23]
pIC50 [1, 6]: 4.10
